Excerpt: A test tank with a capacity of approximately 1100 liters was fitted with a HAYWARD® sand filter. The filter was approximately 0.09 square meters and contained approximately 18 kg of coarse sand. An identical tank was fitted with a HAYWARD ® cartridge filter, as is typically used with swimming pools. […] Water is then drawn through the filters using a pump. Each unit was fitted with necessary plumbing to permit test samples of reactant to be added upstream of the filter, to simulate adding the reactant to the skimmer in a full-sized pool. In this way, the reactant could be drawn through the plumbing and into or onto the filter. In this test orthophosphate, in the form of Na2HPO4, was used to simulate the increased phosphate level present in the water.
This suspension was added upstream of the filter, thus it was drawn toward and into the filter.

O=S(=O)([O-])[O-].O=S(=O)([O-])[O-].O=S(=O)([O-])[O-].[La+3].[La+3] [La2(SO4)3, lanthanum sulfate]
ratio of PO4 recovered to La added (commercial grade (approximately 99.5% purity), 0.8 g Na2HPO4 added, otherwise as Example 1): 0.35
PO4 removed (reagent grade (99.9% pure), 3.5 g in 50 ml tap water added upstream of filter, 1135 L, approx. 800 ppb phosphate, after 2 hours pumping at approx. 75 L/min): 0.65 g
ratio of PO4 to La observed in the experiment (reagent grade (99.9% pure), 3.5 g, after 2 hours): 0.38

— US6338800B1, “Methods and compositions using lanthanum for removing phosphates from water” (Natural Chemistry, Inc., priority 2000, dated 2002)
